Results on one molecule are retold here after article PMC11939361, “diAcCA, a Pro-Drug for Carnosic Acid That Activates the Nrf2 Transcriptional Pathway, Shows Efficacy in the 5xFAD Transgenic Mouse Model of Alzheimer’s Disease” (Antioxidants, 2025).

Data set [1] deals with DAM-related genes in 5xFAD mouse brain. As to the kind of experiment: nCounter NanoString neuropathology gene expression panel. The format is in vivo. On the procedure: (§1) diAcCA or control vehicle was administered three times per week for 3 months to 5xFAD Tg or WT littermate control mice starting at approximately 5 months of age by oral gavage (designated here as “per os” or PO). Three different doses were used (10 mg/kg, 20 mg/kg, or 50 mg/kg). diAcCA was dissolved in olive oil vehicle, a non-polar organic solvent. For vehicle control, we administered olive oil alone. A total of 45 animals were used in this study, with 7–8 animals in each group.
The hippocampus/cortex were isolated from the brain and RNA isolation was performed immediately using the Quick-RNA Miniprep kit (76211-580, VWR, Radnor, PA, USA). RNA was then analyzed by the Salk Institute Single-Cell & Spatial Omics Core for the nCounter Neuropathology panel (NanoString, Bruker Spatial Biology, Inc., Seattle, WA, USA). The list of genes included in the NanoString analysis is provided as Supplementary Information (Table S3). The analysis was performed using the following packages on R studio software version 4.2.3: readr 2.1.5, dplyr 1.1.4, clusterProfiler 4.6.2, org.mm.eg.db 3.16.0, ggplot2 3.5.1, and stringr 1.5.1.
To elucidate the molecular underpinnings of the effect of diAcCA on neuroinflammation, we next analyzed disease-associated microglia (DAM) signatures in WT and 5xFAD mouse brains using nCounter® biomarker analysis (NanoString, Bruker Spatial Biology, Inc., […]). RNA was isolated from the hippocampus/cortex of WT and 5xFAD mice that had received three-month vehicle or diAcCA treatment, and a NanoString neuropathology gene expression panel was performed (Figure 4).

The conditions of data set [2]: mouse, in vivo.
Description: We tested both CA and diAcCA compounds by oral gavage/PO at 10 mg/kg. Analysis was performed by LC-MS in the Scripps Florida Drug Development Core (Jupiter, FL, USA). The compounds were formulated in olive oil. CA went into the oil with minimal stirring, but diAcCA required longer stirring. Blood was collected in hematocrit tubes and centrifuged. […] Drug is therefore likely absorbed via enterocyte passage and through chylomicron absorbance, complicating the early time points of the PK curves.
Therefore, we decided to pre-weigh the CA into a vial and, in the vivarium, rapidly dissolve the compound in DMSO and then add Tween80/saline. The compound was dosed within five minutes of being dissolved, and the final concentrations were 5% DMSO and 95% of a 5% Tween80 solution in saline. […] Oral clearance calculations assume 100% bioavailability.
We also determined the stability and bioavailability of diAcCA compared to CA. For this purpose, individual mice were administered CA or diAcCA IV or via oral gavage/PO. For CA, the doses were 3 mg/kg for the IV route and 10 mg/kg for oral gavage/PO, and for diAcCA 10 mg/kg by oral gavage/PO.
Data set [3] in a line: Brain levels of CA from prior plasma/brain PK data. It counts as in vivo. The note with it: for Cmax: mouse, read-out: predicted Cmax in the brain.
Description: We also determined the stability and bioavailability of diAcCA compared to CA. For this purpose, individual mice were administered CA or diAcCA IV or via oral gavage/PO. For CA, the doses were 3 mg/kg for the IV route and 10 mg/kg for oral gavage/PO, and for diAcCA 10 mg/kg by oral gavage/PO. Plasma concentrations were evaluated at ten different time points over the next 72 h (raw data shown in Tables S1 and S2, Supplementary Materials).
The extensive existing PK data obtained on plasma and brain samples for CA, correlated with prior in vivo efficacy data for CA [26, 33, 49], allowed us to calculate the therapeutic dose range that we wanted to test here for diAcCA.
Data set [4] deals with 5xFAD mice. Description: Quantitative confocal immunohistochemistry (Q-IHC) of hippocampal sections. It counts as in vivo, mouse. The protocol:
The 5xFAD mice bear five mutations linked to AD. Three of these are in the App695 gene [Swedish (APP K670N/M671L), Florida (I716V), London (V717I)], and two are in the PSEN1 gene [L286V, M146L]. Male 5xFAD breeder mice were obtained from Jackson Laboratories (#034848-JAX, Bar Harbor, ME, USA) and crossed with female 6XC57BL6 mice. Genotyping was performed by PCR. First-generation pups were used for all experiments with 5xFAD transgenic (Tg) and WT littermate control mice.
as §1
For euthanasia, animals were deeply anesthetized with isoflurane and then transcardially perfused with ice-cold phosphate-buffered saline (PBS) followed by 4% paraformaldehyde (PFA) for fixation. Brains were isolated and post-fixed in 4% PFA overnight at 4 °C. The next day, brains were washed and transferred to 30% sucrose at 4 °C until sectioning. Every brain then received a masked code for the following steps, and the code was only broken after all quantifications were completed.
Sagittal sections (40 μm-thick) were prepared using a vibratome (Leica VT1200S) and incubated in blocking buffer (5% goat serum, 0.5% Triton X-100 in PBS) for 1 h at room temperature to prevent non-specific binding. Following blocking, floating sections were incubated in their respective primary antibody solutions on a shaker overnight at 4 °C. Antibodies against the following proteins were used in this study: NeuN (D4G4O, 1:500, rabbit mAb #24307, Cell Signaling Technology, Danvers, MA, USA), Synapsin I (D12G5, 1:500, rabbit mAb #5297, Cell Signaling Technology), phosphor (Ser202, Thr205)-tau (AT8, 1:500, mAb #MN1020, ThermoFisher Scientific, Waltham, MA, USA), glial fibrillary acidic protein (GFAP) (GA5, 1:500, MAB360, Millipore Sigma, Carlsbad, CA, USA), ionized calcium binding adaptor molecule 1 (Iba1) (EPR16589, 1:1000, #ab178847, Abcam, Waltham, MA, USA), human nuclear antigen (HuNu) (1:500, mouse mAb #191181, Abcam), and caspase-1 (1:50, rabbit pAb #AB1871, Sigma Aldrich, St. Louis, MO, USA). For Aβ staining, floating sections were pre-treated with 90% formic acid (28905, Thermo Scientific) for 1 min at room temperature. They were then rinsed and blocked, following which they were incubated in anti-β-amyloid 17–24 antibody (4G8, 1:1000, #800708, BioLegend, San Diego, CA, USA) on a shaker overnight at 4 °C.
The next day, immunostaining was performed on brain sections after 3 washes in PBS and incubation in the appropriate secondary antibody solution on a shaker for 2 h at room temperature. Secondary antibodies included Alexa 488 (A11008, 1:500, goat anti-rabbit, Life Technologies, Carlsbad, CA, USA) and Alexa 555 (A21424, 1:500, goat anti-mouse, Life Technologies). The sections were again washed with PBS 3 times, mounted on Superfrost plus slides (12-550-15, Fisher Scientific, Waltham, MA, USA) and dried at room temperature. The slides were then coated with Vectashield plus antifade mounting medium, stained with nuclear dye DAPI (H-2000, Vector Laboratories, San Francisco, CA, USA), and a coverslip (12541057, Fisher Scientific) was applied. For each brain, 3–6 images were acquired for each individual marker using a confocal fluorescence microscope (Nikon Eclipse Ti2) (Figure 1, Figure 2 and Figure 3, Supplementary Figure S1). Post image processing, quantification was performed using Fiji ImageJ (1.54f). For the Iba1-stained slides, a mask was made of cells co-labeled for HuNu and Iba1, and then caspase 1 staining was measured. […]

The mark [5] stands for this setting: 5xFAD hippocampus, 10, 20 or 50 mg/kg PO three times a week for 3 months vs vehicle.

“Also recorded” adds a separate entry of the source. Like-named read-outs stand apart in the source and are kept apart here.

One may read the Tmax as the time from dosing to the highest level. In general, Cmax refers to the peak of the concentration-time curve. On to `CC(=O)Oc1c(C(C)C)cc2c(c1OC(C)=O)[C@@]1(C(=O)O)CCCC(C)(C)[C@@H]1CC2` [diAcCA], for which, in data set [1] (5xFAD brain, 20 or 50 mg/kg vs vehicle, n = 3), the “expression of DAM genes C3 and Igf1” value is “significantly downregulated”. The “DAM signature (heatmap of DAM-related genes)” value in data set [1] (5xFAD hippocampus/cortex RNA, three-month treatment, n = 3) is reported as “dose-dependent decrease in DAM signature”. Further, the “GO biological pathway analysis of upregulated and downregulated genes” value in data set [1] (diAcCA-treated 5xFAD brain vs vehicle-treated) is recorded as “upregulation of genes enriched in pathways associated with neuroprotection”. Besides, the “half-life (t1/2)” value in data set [2] is “over 12 h”. The “Cmax greater than after CA itself” value in data set [2] (po) was ~30%. Also, in data set [2] (po, 10 mg/kg), the “Cmax of CA in plasma” value was found to be 5.75, the time to peak (Tmax) was 1.67 h, the average half-life came out at 12.27 h and the “mean Cmax of CA” value is 5750 nM. Besides, in data set [2] (po, 10 mg/kg), the t1/2 turned out to be 12.27 h and the “time to peak plasma levels of CA after administration of diAcCA” value is listed as ~ 15 min. Moreover, the “time to reach neurotherapeutic levels in the brain” value in data set [3] (after conversion of diAcCA to CA) is on record as “less than 1 h”. Besides, the Cmax in data set [3] (diAcCA 10 mg/kg PO) is ~600 nM. Further, the peak concentration (Cmax) in data set [3] (diAcCA 20 mg/kg PO) is ~1200 nM. For the same molecule, the maximum concentration (Cmax) in data set [3] (diAcCA 50 mg/kg PO) is ~3000 nM. In data set [4] (setting [5]), the “GFAP MFI, astrocytes” value is recorded as “significantly improved; also recorded: reduced GFAP MFI”; the “Iba1 integrated density (ID), microglial density” value is “significantly improved; also recorded: improved IBA ID”; the “NeuN mean fluorescence intensity (MFI), neuronal density” value is “significantly improved; also recorded: restored NeuN MFI (representing neuronal number) to near normal levels”; the “Synapsin I MFI, presynaptic density” value is listed as “significantly improved; also recorded: restored Synapsin I MFI (located in the presynaptic terminal of the synapse) to near normal levels”. Besides, the “percent area of Aβ accumulation (4G8)” value in data set [4] (setting [5]) is “significantly reduced the area of Aβ accumulation; also recorded: significantly reduced the area of Aβ aggregates”. Besides, the “percentage area of pTau aggregates (AT8)” value in data set [4] (5xFAD hippocampus, each treatment dose (10, 20, 50 mg/kg PO, 3 months) vs vehicle) is “remarkable decrease in the area of pTau aggregates; also recorded: dramatically reduced the area of pTau aggregates”.
